Reference: ChEMBL document CHEMBL1201862, “PubChem BioAssay data set” (2004)
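Five concentrations, 48 hours, 96-well plates. Abbreviation: GI50, concentration required for 50% inhibition of growth.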 The source made the active and inactive calls. Cut-off read from the data, not from the text of the source: active = GI50 up to about 1.1 µM and inactive = higher.

Key:
Assay in all cases: DTP human tumour cell line panel, 48 h
786-0 = test system: 786-0
A498 = test system: A498
A549 = test system: A549
COLO 205 = test system: COLO 205
DU-145 = test system: DU-145
EKVX = test system: EKVX
HOP-62 = test system: HOP-62
HT-29 = test system: HT-29
KM12 = test system: KM12
Malme-3M = test system: Malme-3M
NCI-H226 = test system: NCI-H226
OVCAR-5 = test system: OVCAR-5
OVCAR-8 = test system: OVCAR-8
RPMI-8226 = test system: RPMI-8226
SF-268 = test system: SF-268
SK-MEL-2 = test system: SK-MEL-2
SNB-75 = test system: SNB-75
TK-10 = test system: TK-10
UO-31 = test system: UO-31
Hs-578T = test system: Hs-578T

SMILES	GI50 (786-0)	GI50 (A498)	GI50 (A549)	GI50 (COLO 205)	GI50 (DU-145)	GI50 (EKVX)	GI50 (HOP-62)	GI50 (HT-29)	GI50 (KM12)	GI50 (Malme-3M)	GI50 (NCI-H226)	GI50 (OVCAR-5)	GI50 (OVCAR-8)	GI50 (RPMI-8226)	GI50 (SF-268)	GI50 (SK-MEL-2)	GI50 (SNB-75)	GI50 (TK-10)	GI50 (UO-31)	GI50 (Hs-578T)
CC(C)Cn1cnc2c(Sc3c([N+](=O)[O-])ncn3C)nc(N)nc21	> 61 µM (inactive)	> 100 µM (inactive)	> 67.9 µM (inactive)	> 25.6 µM (inactive)	28.5 µM (inactive)	> 50.8 µM (inactive)	> 80.4 µM (inactive)	> 100 µM (inactive)	> 100 µM (inactive)	30.8 µM (inactive)	> 100 µM (inactive)	> 100 µM (inactive)	> 61.4 µM (inactive)	> 52.7 µM (inactive)	> 100 µM (inactive)	22 µM (inactive)	> 59.8 µM (inactive)	> 41.1 µM (inactive)	> 38 µM (inactive)	
CC1=C(O)C(=O)C2C(=O)C1C1Cc3ccccc3C21 (stereo not drawn)	> 100 µM (inactive)	> 100 µM (inactive)	> 100 µM (inactive)	> 100 µM (inactive)		> 100 µM (inactive)	> 100 µM (inactive)	> 100 µM (inactive)	> 100 µM (inactive)	> 100 µM (inactive)	> 100 µM (inactive)	> 100 µM (inactive)	> 100 µM (inactive)	> 100 µM (inactive)	> 100 µM (inactive)	> 100 µM (inactive)	60.5 µM (inactive)	> 100 µM (inactive)	> 100 µM (inactive)	
CN(C)CC(CN(C)C)c1ccccn1	> 100 µM (inactive)	> 100 µM (inactive)	> 100 µM (inactive)	> 100 µM (inactive)		> 100 µM (inactive)	> 100 µM (inactive)	> 100 µM (inactive)	> 100 µM (inactive)	> 100 µM (inactive)	> 100 µM (inactive)	> 100 µM (inactive)	> 100 µM (inactive)	> 100 µM (inactive)	> 100 µM (inactive)	> 100 µM (inactive)		> 100 µM (inactive)	> 100 µM (inactive)	> 100 µM (inactive)
CN1c2ccccc2C2c3c(O)ccc(O)c3C=C([N+](=O)[O-])C21 (stereo not drawn)	0.519 µM (active)	1.79 µM (inactive)	1.56 µM (inactive)	0.653 µM (active)	1.44 µM (inactive)	1.67 µM (inactive)	2.11 µM (inactive)	0.136 µM (active)	0.39 µM (active)		16.2 µM (inactive)	1.83 µM (inactive)	0.286 µM (active)	1.11 µM (active)	0.388 µM (active)	1.98 µM (inactive)	4.7 µM (inactive)	11.2 µM (inactive)	0.521 µM (active)	
CCN(CC)c1nc(N(C)C)c2ccc(OC)cc2n1	17.5 µM (inactive)		19.7 µM (inactive)	7.55 µM (inactive)		3.95 µM (inactive)	19.7 µM (inactive)	4.12 µM (inactive)	14.7 µM (inactive)	18.3 µM (inactive)	14.2 µM (inactive)	16.7 µM (inactive)	15.2 µM (inactive)	10.1 µM (inactive)	32.3 µM (inactive)	15.9 µM (inactive)	15.6 µM (inactive)	24.5 µM (inactive)		39.9 µM (inactive)
CC1=C(c2cc(C(=O)Nc3ccc(Cl)c(Cl)c3)nc(N)n2)Sc2ccccc2N1	> 100 µM (inactive)	> 100 µM (inactive)	> 100 µM (inactive)	> 100 µM (inactive)		98.6 µM (inactive)	> 100 µM (inactive)	> 100 µM (inactive)	> 100 µM (inactive)	> 100 µM (inactive)	> 100 µM (inactive)	> 100 µM (inactive)	> 100 µM (inactive)	> 100 µM (inactive)	> 100 µM (inactive)	> 100 µM (inactive)	> 100 µM (inactive)	> 100 µM (inactive)	> 100 µM (inactive)	
O=C(O)c1c2c(c(C(=O)O)c3ccccc13)-c1ccccc1-2	36.8 µM (inactive)	44.1 µM (inactive)	36 µM (inactive)	71.3 µM (inactive)		31.4 µM (inactive)	31.7 µM (inactive)	47.4 µM (inactive)	38.4 µM (inactive)	31 µM (inactive)	34 µM (inactive)	> 100 µM (inactive)	39.9 µM (inactive)	40.2 µM (inactive)	31.9 µM (inactive)	33.3 µM (inactive)	36.7 µM (inactive)	36.1 µM (inactive)	28.1 µM (inactive)	
C=CCC1(O)CC(n2cc(C)c(=O)[nH]c2=O)OC1CO[Si](C)(C)C(C)(C)C (stereo not drawn)	44.1 µM (inactive)	37.2 µM (inactive)	35.5 µM (inactive)	21.6 µM (inactive)	45.8 µM (inactive)	36.7 µM (inactive)	> 100 µM (inactive)	40.9 µM (inactive)	45.3 µM (inactive)		49.5 µM (inactive)	61.9 µM (inactive)	42.9 µM (inactive)	37.4 µM (inactive)		22.3 µM (inactive)	38 µM (inactive)		42.4 µM (inactive)	
CC(=O)[C@@]1(C)CC2(CCN(C)CC2)OC1C (stereo partly drawn)	> 100 µM (inactive)	> 100 µM (inactive)	> 100 µM (inactive)	> 100 µM (inactive)	> 100 µM (inactive)	> 100 µM (inactive)	> 100 µM (inactive)	> 100 µM (inactive)	> 100 µM (inactive)	> 100 µM (inactive)	> 100 µM (inactive)	> 100 µM (inactive)	> 100 µM (inactive)	> 100 µM (inactive)	> 100 µM (inactive)		> 100 µM (inactive)	> 100 µM (inactive)	> 100 µM (inactive)	
COc1ccc2c3c([nH]c2c1[N+](=O)[O-])C(C)N(C)CC3 (stereo not drawn)	> 100 µM (inactive)	> 100 µM (inactive)	> 100 µM (inactive)	50.4 µM (inactive)		> 100 µM (inactive)	> 100 µM (inactive)	18.9 µM (inactive)	51.6 µM (inactive)	> 100 µM (inactive)	> 100 µM (inactive)	> 100 µM (inactive)	> 100 µM (inactive)	77.4 µM (inactive)	> 10 µM (inactive)	> 100 µM (inactive)	72.3 µM (inactive)	> 100 µM (inactive)	76.2 µM (inactive)	
COc1cc(C2c3cc(O)c(OC)cc3C3OCC2C3CO)ccc1O (stereo not drawn)	> 100 µM (inactive)	> 100 µM (inactive)	> 100 µM (inactive)	> 100 µM (inactive)	> 100 µM (inactive)	> 100 µM (inactive)	> 100 µM (inactive)	> 100 µM (inactive)	> 100 µM (inactive)	> 100 µM (inactive)	> 100 µM (inactive)	> 100 µM (inactive)		> 100 µM (inactive)	> 100 µM (inactive)	> 100 µM (inactive)	> 100 µM (inactive)	> 100 µM (inactive)	> 100 µM (inactive)	
COc1cc2c(c(OC)c1OC)-c1ccc(SC)c(=O)cc1C(CC(=O)Oc1ccc(F)cc1)C2 (stereo not drawn)	0.0625 µM (active)	0.0374 µM (active)	0.134 µM (active)	0.133 µM (active)		5.04 µM (inactive)	0.341 µM (active)	0.164 µM (active)	0.158 µM (active)	0.392 µM (active)	0.231 µM (active)	39.1 µM (inactive)	0.333 µM (active)	0.296 µM (active)	0.622 µM (active)	0.23 µM (active)	0.234 µM (active)	40.8 µM (inactive)	0.817 µM (active)	
CCc1cc(CCC(=O)Nc2c(C)cccc2C)n[nH]1	> 100 µM (inactive)	> 100 µM (inactive)	> 100 µM (inactive)	> 100 µM (inactive)		> 100 µM (inactive)	> 100 µM (inactive)	> 100 µM (inactive)	> 100 µM (inactive)	> 100 µM (inactive)	> 100 µM (inactive)	> 100 µM (inactive)	> 100 µM (inactive)	> 100 µM (inactive)	> 100 µM (inactive)	> 100 µM (inactive)	> 100 µM (inactive)	> 100 µM (inactive)	> 100 µM (inactive)	
Cc1c(O)c(OC2OC(CO)C(O)C(O)C2O)cc2c1CC[C@@H]1C2(C)C(=O)C[C@]2(C)[C@@H]([C@@](C)(O)C3CCC(C)(C)O3)[C@H](O)C[C@@]12C (stereo partly drawn)	> 100 µM (inactive)	> 100 µM (inactive)	> 100 µM (inactive)	> 100 µM (inactive)	> 100 µM (inactive)	> 100 µM (inactive)	> 100 µM (inactive)	> 100 µM (inactive)	> 100 µM (inactive)	> 100 µM (inactive)	> 100 µM (inactive)	> 100 µM (inactive)	> 100 µM (inactive)		> 100 µM (inactive)	> 100 µM (inactive)	> 100 µM (inactive)	> 100 µM (inactive)	> 100 µM (inactive)	
COC(=O)[C@@]12C(=O)C=CC(=O)C1C1C(=CC2C)OC2OC3(CCCCC3)OC21 (stereo partly drawn)	17.5 µM (inactive)	17.9 µM (inactive)	19.3 µM (inactive)	14.2 µM (inactive)		19.7 µM (inactive)	19.9 µM (inactive)	21.6 µM (inactive)	20 µM (inactive)	20.2 µM (inactive)	18.8 µM (inactive)	14.3 µM (inactive)	16.4 µM (inactive)	4.89 µM (inactive)	20.9 µM (inactive)	19 µM (inactive)	18.9 µM (inactive)	17.3 µM (inactive)	16.8 µM (inactive)	
